Measured values taken from ChEMBL document CHEMBL1146687, “Novel semi-synthetic nocathiacin antibiotics: synthesis and antibacterial activity of bis- and mono-O-alkylated derivatives” (Bioorg Med Chem Lett, 2004).
Converted amounts (≈) assume the structure as drawn.

Tests used:
Format in all cases: functional
Staphylococcus aureus [1] = test: In vivo efficacy;(sc) tested for protection against staphylococcus infections in mice; conditions: read-out: PD50
Enterococcus faecalis = test: In vitro antibacterial activity against Enterococcus faecalis
Streptococcus pneumoniae [2] = test: In vitro antibacterial activity against Streptococcus pneumoniae; […]
Staphylococcus aureus [3] = test: In vitro antibacterial activity against […]; 0.003-0.007
Streptococcus pneumoniae [4] = test: In vitro antibacterial activity against Streptococcus pneumoniae
Staphylococcus aureus [5] = test: In vitro antibacterial activity against […]; 0.0070-0.03
Mus musculus [6] = test: In vivo efficacy (sc) tested for protection against staphylococcus infections in mice; 0.3-2.8; conditions: read-out: PD50
Staphylococcus aureus [7] = test: In vitro antibacterial activity against Staphylococcus aureus
Mus musculus [8] = test: In vivo efficacy (sc) tested for protection against staphylococcus infections in mice; 1.1-3.3; conditions: read-out: PD50

Row | Structure (SMILES) | ED50 (Staphylococcus aureus [1]) [mg/kg] | MIC (Enterococcus faecalis) [µg/mL] | MIC (Streptococcus pneumoniae [2]) [µg/mL] | MIC (Staphylococcus aureus [3]) [µg/mL] | MIC (Streptococcus pneumoniae [4]) [µg/mL] | MIC (Staphylococcus aureus [5]) [µg/mL] | ED50 (Mus musculus [6]) [mg/kg] | MIC (Staphylococcus aureus [7]) [µg/mL] | ED50 (Mus musculus [8]) [mg/kg]
1 | C=C(NC(=O)c1csc(-c2nc3c(cc2OC)-c2nc(cs2)C(=O)N[C@@H]([C@@H](C)O)C(=O)N/C(=C(\C)OC)c2nc(cs2)C(=O)N[C@@H]2c4nc(cs4)C(=O)N[C@@H](COC(=O)c4c5c6c(cccc6n4OC)COC(=O)[C@@H](O[C@H]4C[C@](C)(O)[C@H](N(C)C)[C@H](C)O4)[C@H]2OC5)c2nc-3cs2)n1)C(N)=O | 3.7 | 0.015 (≈ 0.0102 µM) | < 0.001 | < 0.007 |  |  |  |  | 
2 | C=C(NC(=O)c1csc(-c2nc3c(cc2O)-c2nc(cs2)C(=O)N[C@@H]([C@@H](C)O)C(=O)N/C(=C(\C)OC)c2nc(cs2)C(=O)N[C@@H]2c4nc(cs4)C(=O)N[C@@H](COC(=O)c4c5c6c(cccc6n4O)COC(=O)[C@@H](O[C@H]4C[C@](C)(O)[C@H](N(C)C)[C@H](C)O4)[C@H]2OC5)c2nc-3cs2)n1)C(N)=O [MJ347-81F4 A] |  | 0.03 (≈ 0.0209 µM) |  |  | 0.002 (≈ 0.00139 µM) | < 0.03 | < 2.8 |  | 
3 | CN[C@H](CC(C)C)C(=O)N[C@H]1C(=O)N[C@@H](CC(N)=O)C(=O)N[C@H]2C(=O)N[C@H]3C(=O)N[C@H](C(=O)N[C@H](C(=O)O)c4cc(O)cc(O)c4-c4cc3ccc4O)[C@H](O)c3ccc(c(Cl)c3)Oc3cc2cc(c3O[C@@H]2O[C@H](CO)[C@@H](O)[C@H](O)[C@H]2O[C@H]2C[C@](C)(N)[C@H](O)[C@H](C)O2)Oc2ccc(cc2Cl)[C@H]1O [VANCOMYCIN] |  | < 0.5 |  |  |  |  |  | 0.2 (≈ 0.138 µM) | < 3.3
